Data published in US20240277698A1, “METHODS OF USING ALDOSTERONE SYNTHASE INHIBITORS” (CINCOR PHARMA, INC., priority 2021, published 2024).

Biological target: T1, aldosterone synthase (Homo sapiens, UniProt P19099)
T1 construct: synthesized in the adrenal cortex by aldosterone synthase; endogenous in cells; host or cells: adrenal cortex of healthy human subjects (in vivo, oral dosing)
T1 sequence (P19099 25-503): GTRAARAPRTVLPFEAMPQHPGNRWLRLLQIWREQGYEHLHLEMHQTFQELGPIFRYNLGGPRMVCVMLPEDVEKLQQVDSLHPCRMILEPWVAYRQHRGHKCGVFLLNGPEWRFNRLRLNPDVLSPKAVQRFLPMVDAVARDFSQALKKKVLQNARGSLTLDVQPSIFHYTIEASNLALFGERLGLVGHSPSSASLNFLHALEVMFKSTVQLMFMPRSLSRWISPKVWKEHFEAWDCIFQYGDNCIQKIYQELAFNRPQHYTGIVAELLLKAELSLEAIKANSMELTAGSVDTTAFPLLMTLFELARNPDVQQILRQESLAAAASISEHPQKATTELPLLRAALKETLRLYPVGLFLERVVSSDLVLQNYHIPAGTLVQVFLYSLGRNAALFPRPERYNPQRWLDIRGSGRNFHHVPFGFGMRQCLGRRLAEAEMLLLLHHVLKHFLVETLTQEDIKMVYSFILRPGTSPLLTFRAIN
Experiment: MAD study: plasma aldosterone and precursors (18-hydroxycorticosterone, corticosterone, 11-deoxycorticosterone)
Type: in vivo
Settings: for Plasma 11-deoxycorticosterone, Day −1 predose / Plasma 18-hydroxycorticosterone, Day −1 predose / Plasma aldosterone, Day −1 predose / Plasma corticosterone, Day −1 predose: baseline; for inhibition of aldosterone synthesis: normal salt diet and low salt diet, 10-day dosing
Text: For each subject, the study consisted of: • A screening period of up to 28 days; • A 5-day inpatient run-in period during which subjects adhered to a controlled, standardized diet and underwent baseline PD assessments; • A 15-day inpatient treatment period, during which subjects received (R)-compound 1 or placebo once daily for 10 days while adhering to a controlled, standardized diet, followed by PK and PD sampling over an additional 5 days; and • A follow-up visit 3 days (1 day) after discharge from the clinical unit. • A cortisol stimulation test (Cohorts 1 and 2 only) and standing aldosterone assessment (all cohorts) were performed on Days 1 and 10. Serial blood samples for PK and PD were obtained prior to and at specified time points over 24 hours after dosing on Day 1 as well as prior to and at specified time points over 120 hours after dosing on Day 10. In addition, blood samples for PK were collected prior to dosing on Days 8 and 9. Urine for PK and PD measurements was collected over 24 hours starting just prior to dosing on Day 1 as well as over 120 hours starting just prior to dosing on Day 10. […]

[1] = 2.5 mg QD, normal salt diet, mean

For `CCC(=O)N[C@@H]1CCCc2c(-c3ccc4c(c3)CCC(=O)N4C)cncc21` [(R)-Compound 1, (R)—N-(4-(1-methyl-2-oxo-1,2,3,4-tetrahydroquinolin-6-yl)-5,6,7,8-tetrahydroisoquinolin-8-yl)propionamide], the “Plasma 18-hydroxycorticosterone, Day 10, 24 hours postdose” value (2.5 mg QD, low salt diet, mean) was 961.8 pg/mL, the “Plasma 18-hydroxycorticosterone, Day 10, predose” value (2.5 mg QD, low salt diet, mean) was 895.4 pg/mL and the “Plasma 18-hydroxycorticosterone, Percent change from Day −1 to Day 10” value (2.5 mg QD, low salt diet, mean) was −22.0%. For the same compound, the “Plasma aldosterone, Day 1, 12 hours postdose” value (2.5 mg QD, low salt diet, mean) was 48.013 pg/mL, the “Plasma aldosterone, Day 1, predose” value (2.5 mg QD, low salt diet, mean) was 151.988 pg/mL and the “Plasma aldosterone, Day 10, 12 hours postdose” value (2.5 mg QD, low salt diet, mean) was 69.100 pg/mL. For the same compound, the “Plasma aldosterone, Day 10, 24 hours postdose” value (2.5 mg QD, low salt diet, mean) was 112.213 pg/mL, the “Plasma aldosterone, Day 10, predose” value (2.5 mg QD, low salt diet, mean) was 97.538 pg/mL and the “Plasma aldosterone, Percent change from Day −1 to Day 10, predose” value (“Plasma aldosterone, Percent change” below) (2.5 mg QD, low salt diet, mean) was −56.540%. For the same compound, the “Plasma corticosterone, Day 1, 12 hours postdose” value (2.5 mg QD, low salt diet, mean) was 1653.4 pg/mL, the “Plasma corticosterone, Day 1, predose” value (2.5 mg QD, low salt diet, mean) was 3711.5 pg/mL and the “Plasma corticosterone, Day 10, 12 hours postdose” value (2.5 mg QD, low salt diet, mean) was 3412.5 pg/mL. For the same compound, the “Plasma corticosterone, Day 10, 24 hours postdose” value (2.5 mg QD, low salt diet, mean) was 10012.5 pg/mL, the “Plasma corticosterone, Day 10, predose” value (2.5 mg QD, low salt diet, mean) was 7190.0 pg/mL and the “Plasma corticosterone, Percent change from Day −1 to Day 10, predose” value (“Plasma corticosterone, Percent change” below) (2.5 mg QD, low salt diet, mean) was 132.0%. The “Plasma 11-deoxycorticosterone, Day −1 predose” value [1] was 50.017 pg/mL, the “Plasma 18-hydroxycorticosterone, Day −1 predose” value [1] was 1185.8 pg/mL and the “Plasma aldosterone, Day −1 predose” value [1] was 153.667 pg/mL. For the same compound, the “Plasma corticosterone, Day −1 predose” value [1] was 6395.0 pg/mL, the “Plasma 11-deoxycorticosterone, Day 1, 12 hours postdose” value [1] was 23.667 pg/mL and the “Plasma 11-deoxycorticosterone, Day 1, predose” value [1] was 53.200 pg/mL. The “Plasma 11-deoxycorticosterone, Day 2, predose” value [1] was 69.617 pg/mL, the “Plasma 11-deoxycorticosterone, Day 10, 12 hours postdose” value [1] was 93.780 pg/mL and the “Plasma 11-deoxycorticosterone, Day 10, 24 hours postdose” value [1] was 177.400 pg/mL. For the same compound, the “Plasma 11-deoxycorticosterone, Day 10, predose” value [1] was 130.680 pg/mL, the “Plasma 11-deoxycorticosterone, Percent change from Day −1 to Day 10, predose” value [1] was 171.567% and the “Plasma 18-hydroxycorticosterone, Day 1, 12 hours postdose” value [1] was 267.3 pg/mL. The “Plasma 18-hydroxycorticosterone, Day 1, predose” value [1] was 1087.0 pg/mL, the “Plasma 18-hydroxycorticosterone, Day 2, predose” value [1] was 901.2 pg/mL and the “Plasma 18-hydroxycorticosterone, Day 10, 12 hours postdose” value [1] was 345.6 pg/mL. The “Plasma 18-hydroxycorticosterone, Day 10, 24 hours postdose” value [1] was 1238.0 pg/mL, the “Plasma 18-hydroxycorticosterone, Day 10, predose” value [1] was 1073.4 pg/mL and the “Plasma 18-hydroxycorticosterone, Percent change from Day −1 to Day 10” value [1] was −10.4%. The “Plasma aldosterone, Day 1, 12 hours postdose” value [1] was 16.535 pg/mL, the “Plasma aldosterone, Day 1, predose” value [1] was 131.250 pg/mL and the “Plasma aldosterone, Day 2, predose” value [1] was 37.700 pg/mL. For the same compound, the “Plasma aldosterone, Day 10, 12 hours postdose” value [1] was 46.360 pg/mL, the “Plasma aldosterone, Day 10, 24 hours postdose” value [1] was 120.740 pg/mL and the “Plasma aldosterone, Day 10, predose” value [1] was 101.880 pg/mL. The “Plasma aldosterone, Percent change” value [1] was −34.296%, the “Plasma corticosterone, Day 1, 12 hours postdose” value [1] was 889.0 pg/mL and the “Plasma corticosterone, Day 1, predose” value [1] was 5828.3 pg/mL. The “Plasma corticosterone, Day 2, predose” value [1] was 6328.3 pg/mL, the “Plasma corticosterone, Day 10, 12 hours postdose” value [1] was 2704.0 pg/mL and the “Plasma corticosterone, Day 10, 24 hours postdose” value [1] was 11182.0 pg/mL. The “Plasma corticosterone, Day 10, predose” value [1] was 8102.0 pg/mL, the “Plasma corticosterone, Percent change” value [1] was 60.6% and the “Plasma 11-deoxycorticosterone, Day −1 predose” value (5.0 mg QD, low salt diet, mean) was 49.111 pg/mL. For the same compound, the “Plasma 18-hydroxycorticosterone, Day −1 predose” value (5.0 mg QD, low salt diet, mean) was 966.3 pg/mL, the “Plasma aldosterone, Day −1 predose” value (5.0 mg QD, low salt diet, mean) was 189.633 pg/mL and the “Plasma corticosterone, Day −1 predose” value (5.0 mg QD, low salt diet, mean) was 3700.7 pg/mL. The “Plasma 11-deoxycorticosterone, Day 1, 12 hours postdose” value (5.0 mg QD, low salt diet, mean) was 94.622 pg/mL, the “Plasma 11-deoxycorticosterone, Day 1, predose” value (5.0 mg QD, low salt diet, mean) was 55.789 pg/mL and the “Plasma 11-deoxycorticosterone, Day 10, 12 hours postdose” value (5.0 mg QD, low salt diet, mean) was 219.700 pg/mL. For the same compound, the “Plasma 11-deoxycorticosterone, Day 10, 24 hours postdose” value (5.0 mg QD, low salt diet, mean) was 308.444 pg/mL, the “Plasma 11-deoxycorticosterone, Day 10, predose” value (5.0 mg QD, low salt diet, mean) was 218.611 pg/mL and the “Plasma 11-deoxycorticosterone, Percent change from Day −1 to Day 10, predose” value (5.0 mg QD, low salt diet, mean) was 573.144%. For the same compound, the “Plasma 18-hydroxycorticosterone, Day 1, 12 hours postdose” value (5.0 mg QD, low salt diet, mean) was 162.3 pg/mL, the “Plasma 18-hydroxycorticosterone, Day 1, predose” value (5.0 mg QD, low salt diet, mean) was 825.8 pg/mL and the “Plasma 18-hydroxycorticosterone, Day 10, 12 hours postdose” value (5.0 mg QD, low salt diet, mean) was 405.2 pg/mL. For the same compound, the “Plasma 18-hydroxycorticosterone, Day 10, 24 hours postdose” value (5.0 mg QD, low salt diet, mean) was 1298.0 pg/mL, the “Plasma 18-hydroxycorticosterone, Day 10, predose” value (5.0 mg QD, low salt diet, mean) was 1159.6 pg/mL and the “Plasma 18-hydroxycorticosterone, Percent change from Day −1 to Day 10” value (5.0 mg QD, low salt diet, mean) was 38.2%. The “Plasma aldosterone, Day 1, 12 hours postdose” value (5.0 mg QD, low salt diet, mean) was 17.511 pg/mL, the “Plasma aldosterone, Day 1, predose” value (5.0 mg QD, low salt diet, mean) was 182.800 pg/mL and the “Plasma aldosterone, Day 10, 12 hours postdose” value (5.0 mg QD, low salt diet, mean) was 49.467 pg/mL. The “Plasma aldosterone, Day 10, 24 hours postdose” value (5.0 mg QD, low salt diet, mean) was 125.811 pg/mL, the “Plasma aldosterone, Day 10, predose” value (5.0 mg QD, low salt diet, mean) was 98.367 pg/mL and the “Plasma aldosterone, Percent change” value (5.0 mg QD, low salt diet, mean) was −36.400%. The “Plasma corticosterone, Day 1, 12 hours postdose” value (5.0 mg QD, low salt diet, mean) was 890.3 pg/mL, the “Plasma corticosterone, Day 1, predose” value (5.0 mg QD, low salt diet, mean) was 2726.3 pg/mL and the “Plasma corticosterone, Day 10, 12 hours postdose” value (5.0 mg QD, low salt diet, mean) was 4738.9 pg/mL. For the same compound, the “Plasma corticosterone, Day 10, 24 hours postdose” value (5.0 mg QD, low salt diet, mean) was 13976.7 pg/mL, the “Plasma corticosterone, Day 10, predose” value (5.0 mg QD, low salt diet, mean) was 11962.2 pg/mL and the “Plasma corticosterone, Percent change” value (5.0 mg QD, low salt diet, mean) was 460.2%. For the same compound, the “doses that markedly decrease aldosterone levels” value (low salt diet and normal salt diet) was greater than 0.5 mg, the “inhibition of aldosterone synthesis” value was “marked, sustained, selective, and generally dose dependent inhibition” and the “inhibition of aldosterone synthesis” value (listed as (R)-compound 1) was “marked, sustained, selective, and generally dose dependent inhibition”.
